Values quoted from earlier work as cited in patent US20120225789A1, “DNA REPAIR OR BRCA1-LIKE GENE SIGNATURE” (Baylor College of Medicine, priority 2009, published 2012).

Tested on: mammary tumors in which BRCA1 protein has been lost
Conditions: mice spontaneously developing BRCA1-lost mammary tumors

Q: For `N.N.[Cl][Pt][Cl]` [cisplatin], which “response of mice to chemotherapy” value is on record?
A: highly sensitive

Q: Which “response of mice to chemotherapy” value does the source give for `CC(=O)O[C@@]12CO[C@@H]1C[C@H](O)[C@@]1(C)C(=O)[C@H](O)C3=C(C)[C@@H](OC(=O)[C@H](O)[C@@H](NC(=O)OC(C)(C)C)c4ccccc4)C[C@@](O)([C@@H](OC(=O)c4ccccc4)[C@H]21)C3(C)C` [docetaxel] here?
A: resistance

Q: Which “response of mice to chemotherapy” value does the source give for `COc1cccc2c1C(=O)c1c(O)c3c(c(O)c1C2=O)C[C@@](O)(C(=O)CO)C[C@@H]3O[C@H]1C[C@H](N)[C@H](O)[C@H](C)O1` [doxorubicin] here?
A: highly sensitive
